Experimental data from paper PMC8963254, “Effects of Lysine N-ζ-Methylation in Ultrashort Tetrabasic Lipopeptides (UTBLPs) on the Potentiation of Rifampicin, Novobiocin, and Niclosamide in Gram-Negative Bacteria” (Antibiotics, 2022).
Read-outs that look alike come from different tables or passages of the source. Non-standard residues stand in square brackets, D forms with d. Residues, ends and D or L forms follow the SMILES beside them. *: point of attachment. Lys(Me3) = C[N+](C)(C)CCCC[C@H](N)C(=O)O; Octanoyl = CCCCCCCC(=O)*

Experiments:
[1] = tested on: E. coli 94393; format: cell-based, Escherichia coli; details: for MICUTBLP: UTBLP alone
Method in brief: (§1)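 Checkerboard synergy assay: antibiotic and OMP combined at varying concentrations with 5 × 10^5 CFU/mL inoculum (final), 37 °C, 18 h; growth read as turbidity at 590 nm. FICI = sum of FICs (MIC in combination / MIC alone); ≤0.5 synergistic, 0.5–4 additive, >4 antagonistic.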

[2] = tested on: E. coli 94474; format: cell-based, Escherichia coli; details: for MICUTBLP: UTBLP alone
Method in brief: as §1

[3] = tested on: E. coli ATCC 25922; format: cell-based, Escherichia coli; details: for MICUTBLP: UTBLP alone
Method in brief: as §1

[4] = tested on: A. baumannii AB92247; test: microbe, parasite or virus in culture; format: cell-based, Acinetobacter baumannii; details: AB92247, 18 h
Method in brief: (§2)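 Minimum inhibitory concentration came from a CLSI broth dilution assay: 18 h at 37 °C, inoculum 5 × 10^5 CFU/mL final.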

[5] = tested on: A. baumannii AB027; test: microbe, parasite or virus in culture; format: cell-based, Acinetobacter baumannii; details: AB027, 18 h
Method in brief: as §2

[6] = tested on: E. faecalis ATCC 29212; format: cell-based, Enterococcus faecalis
Method in brief: as §1

[7] = tested on: A. baumannii ATCC 17978; format: cell-based, Acinetobacter baumannii; details: ATCC 17978, 18 h
Method: (§3) The in vitro antibacterial activity of the UTBLPs was assessed against wild-type and clinically isolated bacterial strains. To obtain the MIC of the compounds, the microbroth dilution susceptibility assay was performed according to the Clinical and Laboratory Standards Institute (CLSI, Wayne, PA, USA) guidelines and as previously described. Briefly, the compounds at varying concentrations were incubated with bacterial inoculum (5 × 10^5 CFU/mL final concentration) at 37 °C for 18 h. Growth in the form of turbidity was confirmed using an EMax Plus microplate reader (Molecular Devices, San Jose, CA, USA) at 590 nm.

[8] = tested on: P. aeruginosa PA262-101856; test: microbe, parasite or virus in culture; format: cell-based, Pseudomonas aeruginosa; details: PA262-101856, 18 h
Method in brief: as §2

[9] = tested on: P. aeruginosa PA259-96196; test: microbe, parasite or virus in culture; format: cell-based, Pseudomonas aeruginosa; details: PA259-96196, 18 h
Method in brief: as §2

[10] = tested on: K. pneumoniae 113250; test: microbe, parasite or virus in culture; format: cell-based, Klebsiella pneumoniae; details: 113250, 18 h
Method in brief: as §2

[11] = tested on: P. aeruginosa PAO1; format: cell-based, Pseudomonas aeruginosa; details: PAO1, 18 h
Method: as §3

[12] = tested on: MSSE 81388; format: cell-based, Staphylococcus epidermidis; details: 18 h
Method: as §3

[13] = tested on: MRSE 61589; format: cell-based, Staphylococcus epidermidis; details: 61589, 18 h
Method: as §3

[14] = tested on: E. faecium ATCC 27270; format: cell-based, Enterococcus faecium; details: ATCC 27270, 18 h
Method: as §3

[15] = tested on: P. aeruginosa PA262-101856; format: cell-based, Pseudomonas aeruginosa; details: for MICUTBLP: UTBLP alone
Method in brief: as §1

[16] = tested on: MRSA ATCC 33592; format: cell-based, Staphylococcus aureus
Method in brief: as §1

[17] = tested on: S. aureus ATCC 29213; format: cell-based, Staphylococcus aureus
Method in brief: as §1

[18] = tested on: E. cloacae 118564; test: microbe, parasite or virus in culture; format: cell-based, Enterobacter cloacae; details: 118564, 18 h
Method in brief: as §2

[19] = UTBLP in combination with novobiocin
[20] = UTBLP in combination with rifampicin
[21] = novobiocin in combination with the UTBLP
[22] = rifampicin in combination with the UTBLP
[23] = UTBLP in combination with chloramphenicol
[24] = chloramphenicol in combination with the UTBLP
[25] = UTBLP alone, plate with chloramphenicol

CCCCCCCC(=O)NCCCC[C@H](NC(=O)CCCCCCC)C(=O)N[C@@H](CCCC[N+](C)(C)C)C(=O)N[C@@H](CCCC[N+](C)(C)C)C(=O)N[C@@H](CCCC[N+](C)(C)C)C(=O)N[C@@H](CCCC[N+](C)(C)C)C(N)=O [UTBLP 8] (Octanoyl-K(Octanoyl)[Lys(Me3)][Lys(Me3)][Lys(Me3)][Lys(Me3)]-NH2)
Interpretation ([1]; UTBLP + novobiocin): Synergy (FICI ≤ 0.5 is synergistic) | Interpretation ([1]; UTBLP + rifampicin): Additive (0.5 < x ≤ 4 is additive) | MICUTBLP ([1]; plate with novobiocin): 128 µg/mL | MICUTBLP ([1]; plate with rifampicin): 128 µg/mL | MICUTBLP [MICcombo] [1, 19]: 16 µg/mL | MICUTBLP [MICcombo] [1, 20]: 16 µg/mL | MICantibiotic [MICcombo] [1, 21]: 16 µg/mL | Interpretation ([2]; UTBLP + novobiocin): Synergy (FICI ≤ 0.5 is synergistic) | Interpretation ([2]; UTBLP + rifampicin): Additive (0.5 < x ≤ 4 is additive) | MICUTBLP ([2]; plate with novobiocin): > 128 µg/mL | MICUTBLP ([2]; plate with rifampicin): > 128 µg/mL | MICUTBLP [MICcombo] [2, 19]: 8 µg/mL | MICUTBLP [MICcombo] [2, 20]: 16 µg/mL | MICantibiotic [MICcombo] [2, 21]: 64 µg/mL | MICantibiotic [MICcombo] [2, 22]: 4 µg/mL | Interpretation ([3]; UTBLP + chloramphenicol): Synergy (FICI ≤ 0.5 is synergistic) | Interpretation ([3]; UTBLP + niclosamide): Synergy (FICI ≤ 0.5 is synergistic) | Interpretation ([3]; UTBLP + novobiocin): Synergy (FICI ≤ 0.5 is synergistic) | Interpretation ([3]; UTBLP + rifampicin): Additive (0.5 < x ≤ 4 is additive) | MICUTBLP ([3]; plate with chloramphenicol): > 128 µg/mL | MICUTBLP ([3]; plate with niclosamide): > 128 µg/mL | MICUTBLP ([3]; plate with novobiocin): > 128 µg/mL | MICUTBLP ([3]; plate with rifampicin): > 128 µg/mL | MICUTBLP [MICcombo] [3, 23]: 8 µg/mL | MICUTBLP [MICcombo] ([3]; UTBLP in combination with niclosamide): 8 µg/mL | MICUTBLP [MICcombo] [3, 19]: 16 µg/mL | MICUTBLP [MICcombo] [3, 20]: 16 µg/mL | MICantibiotic [MICcombo] [3, 24]: 2 µg/mL | MICantibiotic [MICcombo] ([3]; niclosamide in combination with the UTBLP): 8 µg/mL | MICantibiotic [MICcombo] [3, 21]: 2 µg/mL | MICantibiotic [MICcombo] [3, 22]: 1 µg/mL | MIC [4]: 128 µg/mL | MIC [5]: > 128 µg/mL | Interpretation ([6]; UTBLP + chloramphenicol): Additive (0.5 < x ≤ 4 is additive) | MICUTBLP [6, 25]: 128 µg/mL | MICUTBLP [MICcombo] [6, 23]: 16 µg/mL | MICchloramphenicol [MICcombo] [6, 24]: 4 µg/mL | MIC [7]: >128 µg/mL | MIC [8]: > 128 µg/mL | MIC [9]: > 128 µg/mL | MIC [10]: > 128 µg/mL | MIC [11]: >128 µg/mL | MIC [12]: 128 µg/mL | MIC [13]: 128 µg/mL | MIC [14]: 128 µg/mL | Interpretation ([15]; UTBLP + novobiocin): Additive (0.5 < x ≤ 4 is additive) | Interpretation ([15]; UTBLP + rifampicin): Additive (0.5 < x ≤ 4 is additive) | MICUTBLP ([15]; plate with novobiocin): > 128 µg/mL | MICUTBLP ([15]; plate with rifampicin): > 128 µg/mL | MICUTBLP [MICcombo] [15, 19]: 16 µg/mL | MICUTBLP [MICcombo] [15, 20]: 16 µg/mL | MICantibiotic [MICcombo] [15, 21]: 1024 µg/mL | MICantibiotic [MICcombo] [15, 22]: 512 µg/mL | Interpretation ([16]; UTBLP + chloramphenicol): Additive (0.5 < x ≤ 4 is additive) | MICUTBLP [16, 25]: > 128 µg/mL | MICUTBLP [MICcombo] [16, 23]: 0.25 µg/mL | MICchloramphenicol [MICcombo] [16, 24]: 64 µg/mL | MICUTBLP [17, 25]: > 128 µg/mL | MICUTBLP [MICcombo] [17, 23]: 0.25 µg/mL | MICchloramphenicol [MICcombo] [17, 24]: 8 µg/mL | MIC [18]: > 128 µg/mL
